Test results from patent publication US20210170000A1, “Larval preparation of Heligmosomoides polygyrus bakeri as well as methods of making it and uses thereof” (Helmholtz Zentrum München Deutsches Forschungszentrum für …, priority 2018, published 2021).

Assays:
human MDM = assay: HpbE- or Hpb GDH-treated human MDM with inhibitors or neutralizing antibodies; format: cell-based
Description: In order to identify immuneregulatory proteins present in HpbE, the inventors fractionated the extract by size exclusion chromatography and identified active fractions (8-11) based on the capacity to induce the COX metabolite TXB2 as well as IL-10 (FIGS. 4C and 4D). The inventors then identified proteins present in active and non-active fractions by mass spectrometry, thus highlighting Hpb glutamate dehydrogenase (GDH) as a major immuneregulatory candidate, which was uniquely present in active fractions of HpbE (summarized in FIG. 4E). In addition, an inhibitor of GDH (Bithionol), which is also used as an anti-helminthic, reduced the HpbE-triggered induction of PGE2 and IL-10 (FIG. 4F).
As a new tool for studying the uptake, localization and function of Hpb GDH in vivo and in target cells in vitro, we generated monoclonal antibodies (mABs) specific for Hpb GDH (i.e. not cross-reactive with mammalian (human/mouse) GDH) (FIG. 5). Clone 4F8 was selected as the best candidate for further sub cloning and for testing in neutralization experiments. […]
As HIF-1α is positively regulated by the p38 MAPK, the inventors studied the involvement of p38 signaling in the induction of type 2-suppressive mediators by HpbE. In human MDM, p38 was phosphorylated upon treatment with HpbE, correlating with the induction of COX-2 (FIG. 11A) and a p38 inhibitor (VX-702) abrogated the induction of IL-10, IL-1R and PGE2-synthetic enzymes (PTGS2 and PTGES) (FIG. 11B to D). In line with HIF-1α dependent regulation in murine BMDM, a pharmacological inhibitor of HIF-1α (acriflavine) attenuated the HpbE-induced expression of IL-10, IL-1β and COX pathway enzymes in human MDM (FIG. 11B to D). However, p38 and HIF-1α were not responsible for the modulation of the 5-LOX pathway (FIG. 11D).
(§1) Monocyte-derived macrophages (MDM) or bone marrow derived macrophages (BMDM) were generated by culture in the presence of human or murine recombinant GM-CSF (10 ng/ml) (Miltenyi Biotech) and human recombinant TGF-β1 (2 ng/ml) (Peprotech) as previously described (Esser-von Bieren et al. (2013), PLoS Pathog., 9:e1003771; Dietz et al. (2016), J. Allergy Clin Immunol, 139(4):1343-1354.e6). On day 6, cells were harvested and used for further experiments.
(§2) Eicosanoids were quantified by liquid chromatography tandem mass spectrometry (LC-MS/MS) similar to a previously published method (Henkel et al. (2018); Allergy, doi:10.1111/a11.13700). Cytokines were quantified using commercially available multiplex assays or ELISA kits according to the manufacturer's instructions.

human granulocytes = assay: Granulocyte chemotaxis (trans-well) towards nasal polyp secretions; format: cell-based; conditions: for reduction of granulocyte chemotaxis in response to nasal polyp secretions: cells from AERD patients (n=6) and healthy controls (n=3), fluticasone propionate 1 μM, Montelukast 10 μM
Protocol: Granulocyte recruitment (induced by chemokines or nasal polyp secretions) was assessed with or without pre-treatment with Hpb proteins by using trans-well assays. Migrated granulocytes were enumerated microscopically and by flow cytometry.
PMN were resuspended to a concentration of 1×10^6 cells/ml in the presence of 100 ng/ml human GM-CSF (Miltenyi Biotech) and overnight stimulated with 10 μg/ml HpbE. When mentioned, PMN were pre-treated with 1 μM fluticasone propionate (Sigma-Aldrich), 10 μM montelukast (Cayman Chemical) or conditioned media from MDM stimulated overnight with 10 μg/ml Hpb extract+/−100 μM Indomethacin for 1 hour. PMN migration in response to nasal polyp secretions or a chemokine cocktail of 2 ng/ml RANTES, 20 ng/ml IL-8 (Miltenyi Biotech) and 2 ng/ml LTB4 (Cayman Chemical) was tested. Chemoattractants were placed in the lower wells of a chemotaxis plate (3 μm pore size; Corning). After mounting the transwell unit, […] PMN were added to the top of each well and migration was allowed for 3 hours at 37° C., 5% CO2. The number of cells migrating to the lower well was counted microscopically. In some experiments, manual counting was validated by flow cytometry.

human granulocytes (PMN) = assay: Mediator production by human granulocytes (PMN); format: cell-based
Protocol: (§3) Human polymorphonuclear leukocytes (PMN) or peripheral blood mononuclear cells (PBMC) were isolated from the peripheral blood from healthy controls or patients suffering from AERD using density gradient centrifugation. For some experiments, cells were further separated into monocytes (CD14^+), neutrophils (CD16^+) or eosinophils. CD14^+ monocytes were differentiated into macrophages by culture for 6-8 days in the presence of GM-CSF and TGFbl. In most experiments, cells were treated with Hpb proteins at a concentration of 10 μg protein/ml.
(§4) Mediator analysis in cell supernatants (+/−Hpb proteins) was performed by immunoassay for individual mediators (e.g. LTs, PGE2 or IL-10) or LC-MS/MS or Multiplex cytokine analysis for overall mediator profiles.
Hpb proteins (e.g., total somatic homogenate of Hpb L3 larvae) broadly modulate mediator profiles of human myeloid cells.
as §2

[1] = test system: human monocyte derived macrophages (MDM); assay: Mediator (eicosanoid, cytokine) production by human monocyte derived macrophages; format: cell-based
Protocol: as §3, §4
In order to study the effect of Hpb proteins on human macrophages, human monocyte derived macrophages (MDM) were stimulated with A23187 after 16 hrs. treatment with helminth proteins (e.g., total somatic homogenate of Hpb L3 larvae).
(§5) Human monocyte derived macrophages (MDM) were isolated, cultured and stimulated as described herein, e.g. in Example 3.
(§6) Eicosanoids or cytokines were quantified by LC-MS/MS or immunoassays as described herein, e.g. in Example 3.
as §1, §2

MDM from AERD patients = assay: Eicosanoid production by MDM from AERD patients; format: cell-based, human
Description: To validate the efficacy of HpbE in a relevant therapeutic indication, the inventors generated MDM from AERD patients and studied the effects of HpbE and FP on the mediator output.
as §5, §6

[2] = purified recombinant His-tagged protein

CC(C)(C)c1ccc(S(=O)(=O)/C=C/C#N)cc1 [BAY 11-7085]
PGE2, IL-10 and IL-1β production as well as gene expression of PGE2-synthetic enzymes and IL-10 (human MDM; HpbE-treated human MDM, inhibition of NFκβ, 5 μM): significantly reduced

Oc1c(Cl)cc(Cl)cc1Sc1cc(Cl)cc(Cl)c1O [Bithionol]
HpbE-triggered induction of PGE2 and IL-10 (human MDM; inhibitor of GDH, 20 μM): reduced

CS(=O)(=O)c1ccc(-c2noc(C(F)(F)F)c2-c2ccccc2)cc1 [CAY10404]
HpbE-triggered COX-2 expression (human MDM; COX inhibitors): reduced | suppression of the 5-LOX pathway (human MDM; COX inhibitors): remained largely unaffected

CC(C)(O)c1ccccc1CC[C@@H](SCC1(CC(=O)O)CC1)c1cccc(/C=C/c2ccc3ccc(Cl)cc3n2)c1 [Montelukast]
reduction of granulocyte chemotaxis in response to nasal polyp secretions (human granulocytes): 10%

NC(=O)c1ccc(N(C(N)=O)c2c(F)cccc2F)nc1-c1ccc(F)cc1F [VX-702]
induction of IL-10, IL-1R and PGE2-synthetic enzymes (PTGS2 and PTGES) (human MDM; p38 inhibitor): abrogated

CCC(=O)O[C@]1(C(=O)SCF)[C@H](C)C[C@H]2[C@@H]3C[C@H](F)C4=CC(=O)C=C[C@]4(C)[C@@]3(F)[C@@H](O)C[C@@]21C [fluticasone propionate]
pro-inflammatory arachidonic acid (AA) and linoleic acid (LA) metabolites (human granulocytes (PMN)): reduce | eicosanoid output in MDM from healthy individuals ([1]; weak induction of PGE2): only minor effects | reduction of granulocyte chemotaxis in response to nasal polyp secretions (human granulocytes): failed to reduce chemotactic responses | cell recruitment: migration of AERD patient granulocytes towards nasal polyp secretions ex vivo (human granulocytes; pre-treatment of AERD granulocytes): not achieved | eicosanoid output of MDM from AERD patients (MDM from AERD patients): no effects

COc1ccc2c(c1)c(CC(=O)O)c(C)n2C(=O)c1ccc(Cl)cc1 [indomethacin]
HpbE-triggered COX-2 expression (human MDM; COX inhibitors): reduced | suppression of the 5-LOX pathway (human MDM; COX inhibitors): remained largely unaffected | induction of IL-10, IL-1β and PTGES (human MDM; COX inhibitors, CAY10404 10 μM): reduced

Recombinant Hpb GDH: Recombinant His-tagged Hpb glutamate dehydrogenase (UniProtKB A0A183FP08, SEQ ID NO: 1) expressed in E. coli
PGE2 and IL-10 production by human macrophages [1, 2]: induce | generation of pro-inflammatory cysLTs by human macrophages [1, 2]: reduce

acriflavine
HpbE-induced expression of IL-10, IL-1β and COX pathway enzymes (human MDM; pharmacological inhibitor of HIF-1α): attenuated
